Measured values from ChEMBL document CHEMBL5131550, “Application of Rapidly Accelerating Fibrosarcoma Protein Degraders in Drug Discovery” (ACS Med Chem Lett, 2022).
pIC50: −log10 of the molar value.

Columns and labels:
Type in all cases: cell-based
[1] = molecular target: Protein cereblon/Serine/threonine-protein kinase B-raf (Homo sapiens, UniProt P15056+Q96SW2, V600E); assay: Protac activity at E3 ubiquitin-protein ligase/BRAF V600E mutant in human T-REx-293 cells assessed as BRAF degradation incubated for 24 hrs by plate reader assay
[2] = test system: Protein cereblon/Serine/threonine-protein kinase B-raf (Homo sapiens), P15056+Q96SW2 [V600E]; assay: Protac activity at E3 ubiquitin-protein ligase/BRAF V600E mutant in human T-REx-293 cells assessed as maximal BRAF degradation incubated for 24 hrs by plate reader assay
[3] = molecular target: Protein cereblon/Serine/threonine-protein kinase B-raf (Homo sapiens, UniProt P15056+Q96SW2, G466V); assay: Protac activity at E3 ubiquitin-protein ligase/BRAF G466V mutant in human T-REx-293 cells assessed as BRAF degradation incubated for 24 hrs by plate reader assay
[4] = test system: Protein cereblon/Serine/threonine-protein kinase B-raf (Homo sapiens), P15056+Q96SW2 [G466V]; assay: Protac activity at E3 ubiquitin-protein ligase/BRAF G466V mutant in human T-REx-293 cells assessed as maximal BRAF degradation incubated for 24 hrs by plate reader assay
[5] = molecular target: T1, RAF proto-oncogene serine/threonine-protein kinase (Homo sapiens, UniProt P04049); assay: Inhibition of RAF in human WM3629 cells assessed as ERK phosphorylation at Thr202/Tyr204 residue incubated for 6 hrs by HTRF assay
[6] = molecular target: T1, RAF proto-oncogene serine/threonine-protein kinase; assay: Inhibition of RAF in human A-375 cells assessed as ERK phosphorylation at Thr202/Tyr204 residue incubated for 6 hrs by HTRF assay

T1 sequence (P04049 whole entry): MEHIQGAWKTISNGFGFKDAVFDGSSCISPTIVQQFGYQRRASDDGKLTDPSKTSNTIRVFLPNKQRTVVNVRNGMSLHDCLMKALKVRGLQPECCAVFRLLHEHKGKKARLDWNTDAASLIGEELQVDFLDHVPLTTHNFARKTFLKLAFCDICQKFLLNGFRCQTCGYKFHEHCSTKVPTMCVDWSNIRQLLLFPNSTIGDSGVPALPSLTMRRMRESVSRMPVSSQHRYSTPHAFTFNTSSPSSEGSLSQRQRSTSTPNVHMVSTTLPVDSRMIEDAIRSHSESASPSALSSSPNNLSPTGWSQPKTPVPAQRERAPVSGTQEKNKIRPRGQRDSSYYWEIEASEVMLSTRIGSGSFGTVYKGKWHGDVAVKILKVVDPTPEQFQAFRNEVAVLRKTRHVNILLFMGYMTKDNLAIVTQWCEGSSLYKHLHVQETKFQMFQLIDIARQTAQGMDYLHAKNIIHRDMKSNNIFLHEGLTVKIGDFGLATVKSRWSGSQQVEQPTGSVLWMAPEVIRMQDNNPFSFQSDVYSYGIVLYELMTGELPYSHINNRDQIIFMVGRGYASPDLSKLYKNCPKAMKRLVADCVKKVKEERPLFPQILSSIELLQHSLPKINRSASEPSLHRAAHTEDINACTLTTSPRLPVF
Sequence of Protein cereblon/Serine/threonine-protein kinase B-raf (Homo sapiens, UniProt P15056+Q96SW2, V600E) (P15056 2-766 V600E limits assumed, stated change not applied): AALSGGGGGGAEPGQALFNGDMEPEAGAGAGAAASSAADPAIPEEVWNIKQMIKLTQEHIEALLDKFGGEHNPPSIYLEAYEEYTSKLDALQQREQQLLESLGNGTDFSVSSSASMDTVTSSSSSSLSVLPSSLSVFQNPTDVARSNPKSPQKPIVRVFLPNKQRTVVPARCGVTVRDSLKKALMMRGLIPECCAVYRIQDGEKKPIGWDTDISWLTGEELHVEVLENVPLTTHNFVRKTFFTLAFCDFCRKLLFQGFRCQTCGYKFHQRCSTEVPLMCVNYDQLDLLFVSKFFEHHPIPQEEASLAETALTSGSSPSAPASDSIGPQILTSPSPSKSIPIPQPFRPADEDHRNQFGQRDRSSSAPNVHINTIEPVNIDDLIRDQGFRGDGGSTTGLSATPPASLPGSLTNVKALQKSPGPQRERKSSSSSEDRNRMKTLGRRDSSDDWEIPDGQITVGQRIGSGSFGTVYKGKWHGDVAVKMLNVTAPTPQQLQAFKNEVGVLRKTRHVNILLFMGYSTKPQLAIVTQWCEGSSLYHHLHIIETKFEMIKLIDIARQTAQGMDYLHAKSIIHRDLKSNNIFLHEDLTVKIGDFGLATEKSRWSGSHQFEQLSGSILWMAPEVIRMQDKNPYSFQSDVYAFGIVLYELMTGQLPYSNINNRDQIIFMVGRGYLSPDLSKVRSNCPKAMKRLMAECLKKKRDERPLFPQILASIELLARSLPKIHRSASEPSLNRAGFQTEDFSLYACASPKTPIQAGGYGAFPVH
Sequence of Protein cereblon/Serine/threonine-protein kinase B-raf (Homo sapiens, UniProt P15056+Q96SW2, V600E) (Q96SW2 whole entry, stated change not applied): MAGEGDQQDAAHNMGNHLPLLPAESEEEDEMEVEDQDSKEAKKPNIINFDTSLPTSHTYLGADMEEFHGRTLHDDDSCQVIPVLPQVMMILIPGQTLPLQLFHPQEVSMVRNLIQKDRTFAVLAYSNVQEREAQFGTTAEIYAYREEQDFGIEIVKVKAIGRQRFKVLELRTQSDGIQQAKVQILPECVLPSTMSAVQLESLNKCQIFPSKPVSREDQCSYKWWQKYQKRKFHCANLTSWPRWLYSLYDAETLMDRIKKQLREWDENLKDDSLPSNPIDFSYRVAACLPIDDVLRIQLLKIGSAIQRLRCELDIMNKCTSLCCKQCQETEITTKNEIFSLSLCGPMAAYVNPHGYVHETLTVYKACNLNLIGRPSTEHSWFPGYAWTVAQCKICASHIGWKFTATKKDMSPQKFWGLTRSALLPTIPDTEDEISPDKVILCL

pIC50 [5] | pIC50 [6] | SMILES | DC50 [1] [nM] | Emax [2] [%] | DC50 [3] [nM] | Emax [4] [%]
 |  | COc1cc(N2CCC(CN3CCC4(CC3)CCN(c3ccc(-c5cnc6[nH]cc(C(=O)c7c(F)ccc(NS(=O)(=O)N8CC[C@@H](F)C8)c7F)c6c5)cc3)CC4)CC2)cc2c1C(=O)N(C1CCC(=O)NC1=O)C2 (some centres not stated) | ≤ 5 | 35 | 1 | 35
8.00 | 6.00 | Cc1ncc(NC(=O)N2CC[C@@H](CC(F)(F)F)C2)cc1-c1cnc(OCCN2CCN(c3ccc4c(c3)C(=O)N(C3CCC(=O)NC3=O)C4=O)CC2)c(N2CCOCC2)c1 (some centres not stated) |  |  |  | 
8.00 | 7.00 | Cc1ccc(NC(=O)N2CC[C@@H](CC(F)(F)F)C2)cc1-c1cnc(OCCN2CCN(c3ccc4c(c3)C(=O)N(C3CCC(=O)NC3=O)C4=O)CC2)c(N2CCOCC2)c1 (some centres not stated) |  |  |  | 
 |  | O=C1CCC(N2Cc3cc(N4CCC(CN5CC6(CCN(c7ncc(-c8cnc9[nH]cc(C(=O)c%10c(F)ccc(NS(=O)(=O)N%11CC[C@@H](F)C%11)c%10F)c9c8)cn7)C6)C5)CC4)ccc3C2=O)C(=O)N1 (some centres not stated) | ≤ 5 | 35 | 1 | > 70
